Earlier results, collected in US20100143471A1, “NOVEL REDUCED DOSE PHARMACEUTICAL COMPOSITIONS OF FE[…] PSEUDOEPHEDRINE” (LUPIN LIMITED, priority 2007, published 2010).
Where a name gives a salt, the structure may show the parent alone.

System: seasonal allergic rhinitis symptoms
Details: children aged 6-11 years

SMILES | safety and sedation (doses of up to 60 mg bid) | reduction of seasonal allergic rhinitis symptoms (30 mg bid)
CC(C)(C(=O)O)c1ccc(C(O)CCCN2CCC(C(O)(c3ccccc3)c3ccccc3)CC2)cc1 (centres unmarked) [fexofenadine] | safe and nonsedating | 
CC(C)(C(=O)O)c1ccc(C(O)CCCN2CCC(C(O)(c3ccccc3)c3ccccc3)CC2)cc1 (centres unmarked) [fexofenadine HCl] |  | effectively reduces all seasonal allergic rhinitis symptoms
